In patent US20070275932A1, “Aryl, heteroaromatic and bicyclic aryl nitrone compounds, prodrugs and pharmaceutical compositions of the same to treat human disorders” (Renovis, Inc., priority 2003, published 2007):
Where a name gives a salt, the structure may show the parent alone.

Test: Free radical-scavenging/antioxidant assay (DPPH)
Assay type: biochemical
Settings: 50 μM DPPH in 80% methanol, absorbance at 520 nm, 24 h time point (steady state); read-out: EC50 (concentration at which a compound reduces by 50% the peak absorbance of DPPH at 520 nm)
Method: Nitrone compounds of the present invention were tested for their free-radical scavenging/antioxidant activity in an in vitro assay that is accepted by those skilled in the art as a model for conditions involving the generation of free radicals. The assay is based on a reaction between a free-radical donor, 2,2-diphenyl-1-picrylhydrazyl (DPPH), and a radical scavenger/antioxidant to be tested for free-radical scavenging activity. Upon donation of the free-radical electron to the purported radical scavenger, the peak visible absorbance of DPPH (515-520 nm) decreases so that optical density readings at this part of the visual spectrum reflect the progression of the following reaction: DPPH∩+AH→DPPH-H+A∩ where AH is a hypothetical radical scavenger/antioxidant. The assay is based on a protocol originally detailed in Brand-Williams, W. et al., 1995, Use of a Free Radical Method to Evaluate Antioxidant Activity, Lebensm. Wiss. Technol., 28:25-30, with further modifications described in L. R. Fukumoto and G. Mazza, 2000, Assessing Antioxidant and Prooxidant Activities of Phenolic Compounds, J. Agric. Food Chem., 48:3597-3604.
The antioxidant assay was performed using Perkin-Elmer 96-well, clear-bottom, black-wall plates (ordered from E & K Scientific Products) and a Tecan Safire absorbance plate reader. The positive controls were Trolox (6-hydroxy-2,5,7,8-tetramethylchromane-2-carboxylic acid, Sigma-Aldrich), BHA (2(3)-tert-butylhydroquinone monomethyl ether, Sigma-Aldrich), PBN (C-(phenyl)-N-(tert-butyl)nitrone, Sigma-Aldrich) and S-PBN (C-(2-sulfophenyl)-N-(tert-butyl)nitrone, sodium salt, prepared according to E. G. Janzen and R. V. Shetty, 1979, Tetrahedron Lett., 35: 3229-32), and the negative control (i.e., vehicle) was DMSO. In brief, 2 μL of 100×DMSO stock of the desired final concentration of each control or nitrone compound to be tested in the same batch was added to a separate well. To each well was then added 198 μL of a freshly made 50 μM DPPH (Sigma-Aldrich) solution in 80% methanol using a multi-channel pipette. The absorbance was immediately read on the plate reader at 520 nm and thereafter read periodically to assess kinetics until all reactions reached completion (i.e., steady state). Since the steady-state point was 24 h, the assay results are shown from the 24 h time point. The absorbance at 520 nm (OD) was plotted versus the concentrations of the controls and nitrone compounds to assess dose-response and interpolate the EC50 values of the controls and test compounds.

Row | EC50 [µM] | SMILES
1 | 500 to 1000 | CC(C)(C)C(=O)Nc1cccc(/C=[N+](\[O-])C2CCCCC2)n1 [Example 52, N-Cyclohexyl-C-[6-(2,2-dimethylpropanamido)pyridin-2-yl]nitrone]
2 | 10 to 100 | CC(C)(C)C(=O)Nc1cccc(/C=[N+](\[O-])Cc2ccccc2)n1 [Example 53, N-Benzyl-C-[6-(2,2-dimethylpropanamido)pyridin-2-yl]nitrone]
3 | > 1000 | CC(C)(C)[N+]([O-])=Cc1ccccc1 [PBN, C-(phenyl)-N-(tert-butyl)nitrone, reference compound]
4 | > 1000 | CC(C)(C)[N+]([O-])=Cc1ccccc1S(=O)(=O)O [S-PBN, C-(2-sulfophenyl)-N-(tert-butyl)nitrone, sodium salt, reference compound]
5 | < 10 | Cc1c(C)c2c(c(C)c1O)CCC(C)(C(=O)O)O2 (centres unmarked) [Trolox, 6-hydroxy-2,5,7,8-tetramethylchromane-2-carboxylic acid, reference compound]
